Where two headings read alike, the source gives them in different places.
Legend:
[1] = test system: HCV in mixed PBMCs, NTCP-Huh7 and Huh7.5.1 cells; experiment: Dual/triple co-infection in cell co-cultures, HCV readout; assay type: cell-based, hepatitis C virus
[2] = test system: HCV GT3a subgenomic replicon S52/SG-Feo (AI); experiment: Luciferase reporter replicon antiviral assay, GT3a; assay type: cell-based; settings: Hepatitis C virus
Protocol: The anti-HCV activity of STG-175 was conducted using a panel of luciferase reporter replicon cell lines including GT1a, GT1b, GT2a, GT3a and GT4a as we described previously. The GT1a subgenomic renilla luciferase reporter replicon H77 RLucP (7) was supplied by Dr. Delaney. The GT1b subgenomic firefly luciferase reporter replicon pFK-I389/NS3-3’ [29] was supplied by Dr. Bartenschlager. The GT1B subgenomic NS3, NS5A and NS5B mutants were created via homologous recombination using the In-Fusion HD Cloning kit (Clontech) as we described previously. The GT2a genomic luciferase reporter replicon Luc-Neo-JFH-1 was generated as previously. The plasmid pFK-Luc-JFH1 was supplied from Drs. […] The CellTiter-Fluor™ Cell Viability Assay is a non-lytic fluorescence assay, which measures the number of live cells. […] Luciferase activity was determined using the Luciferase Assay System (Promega) in a Berthold luminometer. […] Viable cells continuously convert resazurin to resorufin, increasing the overall fluorescence and color of the media surrounding cells.
Fig 2 Anti-HCV activities of STG-175 among GTs. […] Luciferase activity was determined using the Luciferase Assay System in a Berthold luminometer. […] Data are expressed as mean of relative light units and calculated EC50s are presented. […]

[3] = test system: wild-type Con1 GT1b replicon; experiment: Electroporated Con1 RNA replication in Huh7.5.1 cells (RT-qPCR), wild-type; assay type: cell-based; settings: Hepatitis C virus
From the text: The GT1b subgenomic firefly luciferase reporter replicon pFK-I389/NS3–3 was provided by R. Bartenschlager. The GT1B subgenomic NS3, NS5A and NS5B mutants were created via homologous recombination using the In-Fusion HD Cloning kit (Clontech) as we described previously. […] The in vitro transcription of wild-type and mutant Con1 RNA was accomplished using the T7 MEGAscript kit (Ambion) by following the manufacturer’s instructions. In vitro-transcribed RNAs were introduced into Huh7.5.1 cells by electroporation. Trypsinized cells were washed twice and resuspended in phosphate-buffered saline (PBS) (calcium-free and magnesium-free) at 1x 10^7 cells per ml. Ten micrograms of RNA for each mutant was mixed with 0.4 mL of cells in a 4-mm cuvette, and a Bio-Rad Gene Pulser system was used to deliver a single pulse at 0.27 kV, 100 ohms, and 960 μF. Cells were then plated in 12-well dishes. RNA transfection efficiency and HCV subgenomic replication were assessed by reverse transcription-quantitative PCR (RT-qPCR) and presented as genome equivalents (GE) per microgram of total RNA as described previously. We measured by RT-qPCR the replication of wild-type, STG-175-, NS5Ai-, NS3i- and NS5Bi-resistant mutants in the presence of increasing concentrations of SGT-175, daclatasvir, telaprevir, boceprevir and sofosbuvir over a period of 8 days.
Fig 3 Replicon clearance, replication rebound and resistance analyses. […] Then drugs were removed to allow viral replication rebound to occur. At each passage, samples of cells were collected, RNA extracted and analyzed by RT-PCR for HCV RNA levels. B. Emergence of resistance: Con1 replicon Huh-7 cells were passaged 22 times in the absence or presence of STG-175 or selected DAAs. At each passage, sample of cells were collected, RNA extracted and analyzed by RT-PCR for HCV RNA levels. C. […] Data are expressed as number of HCV RNA copies per cell. […] Data are expressed as mean of relative light units and calculated EC50s are presented. […] E. Degree of resistance of D320E and Y321N Con1 variants: Left panel. Wild-type (WT), D320E and D320/Y321N NS5A Con1 RNA were electroporated into Huh7.5.1 cells and replication monitored over 8 days by quantifying the levels of intracellular HCV RNA. Right panel. Same as just above except that increasing concentrations of STG-175 were added at the time of the electroporation. […] STG-175 is taken as the substance from the printed x-axis title 'STG-175 in Log nM'.
To determine whether the D320E and Y321N substitutions truly render HCV resistant to STG-175, they were introduced into wild-type Con1 replicon as we described previously. Introduction of the substitutions was verified by sequencing. In vitro-transcribed wild-type, D320E and D320E/Y321N HCV RNAs were then electroporated into Huh7.5.1 cells and viral replication assessed by RT-qPCR and presented as GE per microgram of total RNA as we described previously. […] We then analyzed the replication of wild-type, D320E and D320E/Y321N in the presence of increasing concentrations of SGT-175 over a period of 8 days.
Fig 5 Cross-resistance analyses.

CC=CCC(C)C(O)C1C(=O)NC(CC)C(=O)N(C)C(CSCCCCO)C(=O)N(C)C(CC(C)(C)O)C(=O)NC(C(C)C)C(=O)N(C)C(CC(C)C)C(=O)NC(C)C(=O)NC(C)C(=O)N(C)C(CC(C)C)C(=O)N(C)C(CC(C)C)C(=O)N(C)C(C(C)C)C(=O)N1C (stereo not shown) [STG-175]
HCV infection in co-infection ([1]; STG-175 added together with virus): totally blocked | pre-established HCV infection in co-infection ([1]; added 3 days post-infection and then every 3 days): totally eradicated | EC50 ([2]; 72 h, read-out: EC50 GT3a): 38.9 nM | EC50 ([2]; read-out: EC50 GT3a (Fig 2D)): 38.9 nM | EC50 ([3]; Huh-7.5.1, 144 h, read-out: EC50, WT replicon): 35.7 nM | EC50 ([3]; Huh-7.5.1, 192 h, read-out: EC50, WT replicon): 34.4 nM | EC50 ([3]; Huh-7.5.1, 192 h, read-out: EC50 GT1b WT): 10.6 nM
